Assay results published in publication PMC10065276, “Enhanced therapeutic window for antimicrobial Pept-ins by investigating their structure-activity relationship” (PLOS ONE, 2023).
Residues, ends and D or L forms follow the SMILES beside them.

Tested on: E. coli BL21
Details: BL21, 17 h
Procedure, shortened: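 EUCAST broth microdilution in Mueller-Hinton medium; end-exponential culture diluted to 0.005 McF (~1.5x10^6 CFU/mL) before 1:1 mixing with two-fold peptide dilutions (0.75 to 100 μg/mL), triplicates.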

| SMILES | BL21 MIC |
| --- | --- |
| CC[C@H](C)[C@H](NC(=O)CNC(=O)[C@H](CC(C)C)NC(=O)[C@H](CCCNC(=N)N)NC(=O)[C@@H]1CCCN1C(=O)[C@H](CCCNC(=N)N)NC(=O)[C@H](CCCNC(=N)N)NC(=O)[C@H](CC(C)C)NC(=O)[C@H](C)NC(=O)[C@@H](NC(=O)[C@H](C)NC(=O)[C@@H](NC(=O)CNC(=O)[C@H](CC(C)C)NC(=O)[C@@H](N)CCCNC(=N)N)[C@@H](C)CC)C(C)C)C(=O)N[C@@H](C)C(=O)N[C@H](C(=O)N[C@@H](C)C(=O)N[C@@H](C)C(=O)N[C@@H](CCCNC(=N)N)C(=O)N[C@@H](CCCNC(=N)N)C(=O)O)C(C)C [Peptide P33-L19A] (H-RLGIAVALRRPRLGIAVAARR-OH) | 6.25 µg/mL |
| CC[C@H](C)[C@H](NC(=O)CNC(=O)[C@H](CC(C)C)NC(=O)[C@H](CCCNC(=N)N)NC(=O)[C@@H]1CCCN1C(=O)[C@H](CCCNC(=N)N)NC(=O)[C@H](CCCNC(=N)N)NC(=O)[C@H](CC(C)C)NC(=O)[C@H](C)NC(=O)[C@@H](NC(=O)[C@H](C)NC(=O)[C@@H](NC(=O)CNC(=O)[C@H](CC(C)C)NC(=O)[C@H](C)N)[C@@H](C)CC)C(C)C)C(=O)N[C@@H](C)C(=O)N[C@H](C(=O)N[C@@H](C)C(=O)N[C@@H](CC(C)C)C(=O)N[C@@H](CCCNC(=N)N)C(=O)N[C@@H](CCCNC(=N)N)C(=O)O)C(C)C [Peptide P33-R1A] (H-ALGIAVALRRPRLGIAVALRR-OH) | 6.25 µg/mL |
| CC[C@H](C)[C@H](NC(=O)CNC(=O)[C@H](CC(C)C)NC(=O)[C@@H](N)CCCNC(=N)N)C(=O)N[C@@H](C)C(=O)N[C@H](C(=O)N[C@@H](C)C(=O)N[C@@H](CC(C)C)C(=O)N[C@@H](C)C(=O)N[C@@H](CCCNC(=N)N)C(=O)N1CCC[C@H]1C(=O)N[C@@H](CCCNC(=N)N)C(=O)N[C@@H](CC(C)C)C(=O)NCC(=O)N[C@H](C(=O)N[C@@H](C)C(=O)N[C@H](C(=O)N[C@@H](C)C(=O)N[C@@H](CC(C)C)C(=O)N[C@@H](CCCNC(=N)N)C(=O)N[C@@H](CCCNC(=N)N)C(=O)O)C(C)C)[C@@H](C)CC)C(C)C [Peptide P33-R9A] (H-RLGIAVALARPRLGIAVALRR-OH) | 6.25 µg/mL |
| CC[C@H](C)[C@H](NC(=O)CNC(=O)[C@H](CC(C)C)NC(=O)[C@@H](N)CCCNC(=N)N)C(=O)N[C@@H](C)C(=O)N[C@@H](C)C(=O)N[C@@H](C)C(=O)N[C@@H](CC(C)C)C(=O)N[C@@H](CCCNC(=N)N)C(=O)N[C@@H](CCCNC(=N)N)C(=O)N1CCC[C@H]1C(=O)N[C@@H](CCCNC(=N)N)C(=O)N[C@@H](CC(C)C)C(=O)NCC(=O)N[C@H](C(=O)N[C@@H](C)C(=O)N[C@H](C(=O)N[C@@H](C)C(=O)N[C@@H](CC(C)C)C(=O)N[C@@H](CCCNC(=N)N)C(=O)N[C@@H](CCCNC(=N)N)C(=O)O)C(C)C)[C@@H](C)CC [Peptide P33-V6A] (H-RLGIAAALRRPRLGIAVALRR-OH) | 6.25 µg/mL |
| CC[C@H](C)[C@H](NC(=O)CNC(=O)[C@H](CC(C)C)NC(=O)[C@H](CCCNC(=N)N)NC(=O)[C@@H]1CCCN1C(=O)[C@H](CCCNC(=N)N)NC(=O)[C@H](CCCNC(=N)N)NC(=O)[C@H](CC(C)C)NC(=O)[C@H](C)NC(=O)[C@@H](NC(=O)[C@H](C)NC(=O)[C@@H](NC(=O)CNC(=O)[C@H](CC(C)C)NC(=O)[C@@H](N)CCCNC(=N)N)[C@@H](C)CC)C(C)C)C(=O)N[C@@H](C)C(=O)N[C@@H](C)C(=O)N[C@@H](C)C(=O)N[C@@H](CC(C)C)C(=O)N[C@@H](CCCNC(=N)N)C(=O)N[C@@H](CCCNC(=N)N)C(=O)O [Peptide P33-V17A] (H-RLGIAVALRRPRLGIAAALRR-OH) | 6.25 µg/mL |
| CC[C@H](C)[C@H](NC(=O)CNC(=O)[C@H](CC(C)C)NC(=O)[C@H](CCCNC(=N)N)NC(=O)[C@@H]1CCCN1C(=O)[C@H](CC(C)C)NC(=O)[C@H](C)NC(=O)[C@@H](NC(=O)[C@H](C)NC(=O)[C@@H](NC(=O)CNC(=O)[C@H](CC(C)C)NC(=O)[C@@H](N)CCCNC(=N)N)[C@@H](C)CC)C(C)C)C(=O)N[C@@H](C)C(=O)N[C@H](C(=O)N[C@@H](C)C(=O)N[C@@H](CC(C)C)C(=O)N[C@@H](CCCNC(=N)N)C(=O)O)C(C)C [Peptide P33_3R_1] (H-RLGIAVALPRLGIAVALR-OH) | 12.5 µg/mL |
